# Source: the kinase profiling compilation of Christmann-Franck et al. (2016)
# How the values were obtained:
# Test in all cases: Caliper, Mobility shift assay off-chip
# [1] = biological target: PAK2 (human) (UniProt Q13177)
# [2] = biological target: RPS6KA1 KD1 KD2 (human) (UniProt Q15418)
# [3] = biological target: PRKCQ (human) (UniProt Q04759)
# [4] = test system: PDGFRA (human), P16234 [V561D]
# [5] = biological target: CSNK1D (human) (UniProt P48730)
# [6] = biological target: PRKD1 (human) (UniProt Q15139)
# [7] = test system: ABL1 (human), P00519 [H396P]
# [8] = biological target: MARK1 (human) (UniProt Q9P0L2)
# [9] = biological target: ROCK2 (human) (UniProt O75116)
# [10] = biological target: SYK (human) (UniProt P43405)
# [11] = biological target: NTRK3 (human) (UniProt Q16288)
# [12] = biological target: DYRK1A (human) (UniProt Q13627)
# [13] = biological target: MAP4K4 (human) (UniProt O95819)
# [14] = biological target: LCK (human) (UniProt P06239)
# [15] = biological target: CSNK1A1 (human) (UniProt P48729)
# [16] = biological target: PRKCI (human) (UniProt P41743)
# [17] = test system: RET (human), P07949 [Y791F]
# [18] = biological target: AKT2 (human) (UniProt P31751)
# [19] = biological target: CAMK2B (human) (UniProt Q13554)
# [20] = biological target: MAPK1 (human) (UniProt P28482)
# [21] = biological target: BMX (human) (UniProt P51813)
# [22] = biological target: CSNK1G3 (human) (UniProt Q9Y6M4)
# [23] = biological target: NEK2 (human) (UniProt P51955)
# [24] = biological target: ABL1 (human) (UniProt P00519)
# [25] = biological target: IRAK4 (human) (UniProt Q9NWZ3)
# [26] = biological target: FLT3 (human) (UniProt P36888)
# [27] = biological target: CHEK2 (human) (UniProt O96017)
# [28] = biological target: PASK (human) (UniProt Q96RG2)
# [29] = biological target: DYRK4 (human) (UniProt Q9NR20)
# [30] = biological target: PRKCD (human) (UniProt Q05655)
# [31] = biological target: PHKG1 (human) (UniProt Q16816)
# [32] = biological target: RAF1 (human) (UniProt P04049)
# [33] = biological target: PIM3 (human) (UniProt Q86V86)
# Sequence of RPS6KA1 KD1 KD2 (human) (Q15418 whole entry, looked up): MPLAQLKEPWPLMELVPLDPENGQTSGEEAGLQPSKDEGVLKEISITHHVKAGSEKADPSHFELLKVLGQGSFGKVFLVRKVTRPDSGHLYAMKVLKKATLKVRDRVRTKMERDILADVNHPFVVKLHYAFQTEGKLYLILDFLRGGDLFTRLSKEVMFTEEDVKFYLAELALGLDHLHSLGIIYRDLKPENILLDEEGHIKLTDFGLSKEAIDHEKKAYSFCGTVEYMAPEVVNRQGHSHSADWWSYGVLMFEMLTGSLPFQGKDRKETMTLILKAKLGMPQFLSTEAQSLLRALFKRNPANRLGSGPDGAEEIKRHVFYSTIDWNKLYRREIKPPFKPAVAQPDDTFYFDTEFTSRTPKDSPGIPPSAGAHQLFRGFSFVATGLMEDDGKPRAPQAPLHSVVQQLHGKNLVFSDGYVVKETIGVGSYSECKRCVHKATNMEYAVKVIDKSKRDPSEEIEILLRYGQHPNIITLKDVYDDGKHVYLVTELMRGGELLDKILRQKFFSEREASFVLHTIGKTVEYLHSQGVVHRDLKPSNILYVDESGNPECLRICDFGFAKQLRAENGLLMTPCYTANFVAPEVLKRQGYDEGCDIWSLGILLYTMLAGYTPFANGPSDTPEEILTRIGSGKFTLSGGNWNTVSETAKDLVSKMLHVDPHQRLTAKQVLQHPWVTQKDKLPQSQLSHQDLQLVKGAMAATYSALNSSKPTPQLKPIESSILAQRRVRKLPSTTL
# Sequence of PRKCQ (human) (Q04759 whole entry, looked up): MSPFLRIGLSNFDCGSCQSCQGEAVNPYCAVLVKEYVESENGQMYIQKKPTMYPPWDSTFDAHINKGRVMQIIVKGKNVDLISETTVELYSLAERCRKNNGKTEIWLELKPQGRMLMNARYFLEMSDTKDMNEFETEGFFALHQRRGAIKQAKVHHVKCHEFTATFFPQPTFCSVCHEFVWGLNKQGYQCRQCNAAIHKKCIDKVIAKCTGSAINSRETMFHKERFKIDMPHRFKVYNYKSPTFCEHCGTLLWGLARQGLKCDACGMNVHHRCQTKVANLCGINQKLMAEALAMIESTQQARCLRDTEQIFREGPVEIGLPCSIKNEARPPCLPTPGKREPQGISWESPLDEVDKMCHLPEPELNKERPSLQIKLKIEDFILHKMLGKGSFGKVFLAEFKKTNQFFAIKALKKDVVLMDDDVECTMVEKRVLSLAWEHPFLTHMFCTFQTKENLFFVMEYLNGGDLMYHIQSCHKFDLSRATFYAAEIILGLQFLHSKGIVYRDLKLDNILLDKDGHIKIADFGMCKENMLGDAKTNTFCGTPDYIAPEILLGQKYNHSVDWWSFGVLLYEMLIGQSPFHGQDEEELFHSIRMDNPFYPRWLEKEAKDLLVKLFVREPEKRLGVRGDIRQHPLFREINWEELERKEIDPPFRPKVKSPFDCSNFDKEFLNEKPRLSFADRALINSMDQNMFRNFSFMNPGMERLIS
# Sequence of MARK1 (human) (Q9P0L2 whole entry, looked up): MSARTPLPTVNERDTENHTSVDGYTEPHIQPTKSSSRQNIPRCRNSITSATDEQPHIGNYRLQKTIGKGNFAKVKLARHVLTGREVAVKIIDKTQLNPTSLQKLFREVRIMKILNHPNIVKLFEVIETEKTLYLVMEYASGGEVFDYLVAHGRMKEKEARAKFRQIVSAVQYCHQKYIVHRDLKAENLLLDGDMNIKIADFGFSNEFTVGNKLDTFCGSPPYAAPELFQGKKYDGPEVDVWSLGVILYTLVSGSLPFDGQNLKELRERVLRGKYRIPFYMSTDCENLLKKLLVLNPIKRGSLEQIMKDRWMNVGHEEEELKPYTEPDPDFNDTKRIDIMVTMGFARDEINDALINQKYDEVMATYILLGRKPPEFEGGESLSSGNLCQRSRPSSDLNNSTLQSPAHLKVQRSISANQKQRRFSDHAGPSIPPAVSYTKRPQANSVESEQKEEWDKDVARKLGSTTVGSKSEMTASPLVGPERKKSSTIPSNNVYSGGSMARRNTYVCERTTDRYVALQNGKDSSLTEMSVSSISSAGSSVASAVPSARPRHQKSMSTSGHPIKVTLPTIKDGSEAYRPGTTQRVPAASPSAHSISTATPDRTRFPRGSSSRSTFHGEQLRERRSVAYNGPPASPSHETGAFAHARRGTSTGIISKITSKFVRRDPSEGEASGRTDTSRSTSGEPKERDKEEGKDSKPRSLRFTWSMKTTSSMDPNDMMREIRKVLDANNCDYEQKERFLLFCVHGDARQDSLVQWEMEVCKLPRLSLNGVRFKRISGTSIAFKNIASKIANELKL
# Sequence of LCK (human) (P06239 whole entry, looked up): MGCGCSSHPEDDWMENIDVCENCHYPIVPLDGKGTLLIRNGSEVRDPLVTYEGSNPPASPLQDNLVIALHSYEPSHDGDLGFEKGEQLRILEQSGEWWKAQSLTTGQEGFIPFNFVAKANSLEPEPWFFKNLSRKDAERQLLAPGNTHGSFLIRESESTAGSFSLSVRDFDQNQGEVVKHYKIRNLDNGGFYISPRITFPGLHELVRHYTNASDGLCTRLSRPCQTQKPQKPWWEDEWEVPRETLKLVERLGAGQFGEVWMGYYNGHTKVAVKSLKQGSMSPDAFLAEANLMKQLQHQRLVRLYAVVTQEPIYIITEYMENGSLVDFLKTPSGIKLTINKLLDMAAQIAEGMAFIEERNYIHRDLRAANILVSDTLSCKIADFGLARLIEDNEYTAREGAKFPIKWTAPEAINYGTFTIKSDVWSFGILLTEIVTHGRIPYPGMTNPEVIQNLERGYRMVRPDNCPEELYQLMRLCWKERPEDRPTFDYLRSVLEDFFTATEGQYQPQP
# Sequence of MAPK1 (human) (P28482 whole entry, looked up): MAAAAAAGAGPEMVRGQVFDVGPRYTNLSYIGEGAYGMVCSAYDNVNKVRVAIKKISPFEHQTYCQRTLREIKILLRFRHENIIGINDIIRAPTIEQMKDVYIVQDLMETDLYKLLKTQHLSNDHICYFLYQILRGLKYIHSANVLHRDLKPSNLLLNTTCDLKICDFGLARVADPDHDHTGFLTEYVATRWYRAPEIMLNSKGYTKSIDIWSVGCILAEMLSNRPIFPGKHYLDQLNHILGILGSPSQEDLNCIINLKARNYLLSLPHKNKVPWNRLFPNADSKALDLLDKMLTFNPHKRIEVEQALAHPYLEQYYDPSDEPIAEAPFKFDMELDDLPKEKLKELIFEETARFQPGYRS
# Sequence of PHKG1 (human) (Q16816 whole entry, looked up): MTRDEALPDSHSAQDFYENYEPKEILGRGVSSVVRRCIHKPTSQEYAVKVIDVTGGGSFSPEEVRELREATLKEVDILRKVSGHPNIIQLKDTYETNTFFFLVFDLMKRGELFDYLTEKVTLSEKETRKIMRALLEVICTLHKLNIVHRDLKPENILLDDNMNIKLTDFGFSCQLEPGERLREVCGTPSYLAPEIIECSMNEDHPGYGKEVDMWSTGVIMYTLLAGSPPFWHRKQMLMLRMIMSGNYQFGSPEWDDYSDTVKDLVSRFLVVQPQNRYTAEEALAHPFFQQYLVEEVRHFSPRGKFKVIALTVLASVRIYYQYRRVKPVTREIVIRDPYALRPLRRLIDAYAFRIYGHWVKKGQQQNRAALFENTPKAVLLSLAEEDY
# Sequence of BMX (human) (P51813 whole entry, looked up): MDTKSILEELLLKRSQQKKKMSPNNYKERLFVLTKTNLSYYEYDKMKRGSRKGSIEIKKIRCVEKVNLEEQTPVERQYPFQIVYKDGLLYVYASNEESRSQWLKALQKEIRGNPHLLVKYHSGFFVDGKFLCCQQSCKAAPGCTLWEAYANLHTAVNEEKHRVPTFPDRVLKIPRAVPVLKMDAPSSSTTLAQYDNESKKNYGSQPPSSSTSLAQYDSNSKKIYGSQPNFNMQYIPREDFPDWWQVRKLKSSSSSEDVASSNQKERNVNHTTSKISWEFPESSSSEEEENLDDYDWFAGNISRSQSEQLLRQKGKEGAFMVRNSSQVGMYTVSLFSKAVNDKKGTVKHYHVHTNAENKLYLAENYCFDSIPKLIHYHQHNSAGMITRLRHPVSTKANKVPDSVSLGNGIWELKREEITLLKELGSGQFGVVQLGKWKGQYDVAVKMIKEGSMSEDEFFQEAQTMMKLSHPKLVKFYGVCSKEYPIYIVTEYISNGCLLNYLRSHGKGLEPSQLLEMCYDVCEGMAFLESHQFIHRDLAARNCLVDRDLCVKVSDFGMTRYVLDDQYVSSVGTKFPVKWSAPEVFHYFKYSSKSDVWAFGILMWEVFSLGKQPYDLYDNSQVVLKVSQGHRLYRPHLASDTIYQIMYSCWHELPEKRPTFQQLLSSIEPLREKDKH
# Sequence of IRAK4 (human) (Q9NWZ3 whole entry, looked up): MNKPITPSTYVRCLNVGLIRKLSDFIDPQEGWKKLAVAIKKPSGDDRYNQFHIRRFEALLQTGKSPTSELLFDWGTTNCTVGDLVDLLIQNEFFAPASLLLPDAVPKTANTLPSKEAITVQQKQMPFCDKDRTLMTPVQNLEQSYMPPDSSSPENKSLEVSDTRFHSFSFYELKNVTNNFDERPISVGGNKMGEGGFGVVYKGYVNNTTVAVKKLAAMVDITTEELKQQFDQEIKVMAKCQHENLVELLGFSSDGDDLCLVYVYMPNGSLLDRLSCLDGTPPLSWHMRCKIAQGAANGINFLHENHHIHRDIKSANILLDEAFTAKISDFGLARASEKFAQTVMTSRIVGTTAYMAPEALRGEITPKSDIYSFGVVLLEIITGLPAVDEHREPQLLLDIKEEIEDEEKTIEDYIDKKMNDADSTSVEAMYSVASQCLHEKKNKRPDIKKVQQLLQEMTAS
structure (smiles),measurement,setting,value
Cn1cc(-c2cnc3ccc4ccc(CS(=O)(=O)NC5CCCCC5)cc4c(=O)c3c2)cn1,inhibition,[1]; compound 0.01 µM,4.4%
same,inhibition,[1]; compound 0.1 µM,4.9%
same,inhibition,[2]; compound 0.01 µM,1.3%
same,inhibition,[2]; compound 0.1 µM,3.4%
same,inhibition,[3]; compound 0.01 µM,-6.4%
same,inhibition,[3]; compound 0.1 µM,-1.3%
same,inhibition,[4]; compound 0.01 µM,4.1%
same,inhibition,[4]; compound 0.1 µM,19.6%
same,inhibition,[5]; compound 0.01 µM,-3.5%
same,inhibition,[5]; compound 0.1 µM,8.9%
same,inhibition,[6]; compound 0.01 µM,-2.4%
same,inhibition,[6]; compound 0.1 µM,11.3%
same,inhibition,[7]; compound 0.01 µM,2.2%
same,inhibition,[7]; compound 0.1 µM,0.5%
same,inhibition,[8]; compound 0.01 µM,0.6%
same,inhibition,[8]; compound 0.1 µM,5.5%
same,inhibition,[9]; compound 0.01 µM,6.2%
same,inhibition,[9]; compound 0.1 µM,21.2%
same,inhibition,[10]; compound 0.01 µM,1.3%
same,inhibition,[10]; compound 0.1 µM,-4.4%
same,inhibition,[11]; compound 0.01 µM,8.4%
same,inhibition,[11]; compound 0.1 µM,-0.4%
same,inhibition,[12]; compound 0.01 µM,-1%
same,inhibition,[12]; compound 0.1 µM,6.4%
same,inhibition,[13]; compound 0.01 µM,-2.1%
same,inhibition,[13]; compound 0.1 µM,9.2%
same,inhibition,[14]; compound 0.01 µM,8.2%
same,inhibition,[14]; compound 0.1 µM,7.3%
same,inhibition,[15]; compound 0.01 µM,-2.8%
same,inhibition,[15]; compound 0.1 µM,10.2%
same,inhibition,[16]; compound 0.01 µM,0.9%
same,inhibition,[16]; compound 0.1 µM,1%
same,inhibition,[17]; compound 0.01 µM,14.9%
same,inhibition,[17]; compound 0.1 µM,1%
same,inhibition,[18]; compound 0.01 µM,-1.3%
same,inhibition,[18]; compound 0.1 µM,2%
same,inhibition,[19]; compound 0.01 µM,4.4%
same,inhibition,[19]; compound 0.1 µM,-5.2%
same,inhibition,[20]; compound 0.01 µM,-10.5%
same,inhibition,[20]; compound 0.1 µM,-4.8%
same,inhibition,[21]; compound 0.01 µM,-1%
same,inhibition,[21]; compound 0.1 µM,-7.1%
same,inhibition,[22]; compound 0.01 µM,0.7%
same,inhibition,[22]; compound 0.1 µM,-0.7%
same,inhibition,[23]; compound 0.01 µM,0.9%
same,inhibition,[23]; compound 0.1 µM,-2.6%
same,inhibition,[24]; compound 0.01 µM,3.8%
same,inhibition,[24]; compound 0.1 µM,3.4%
same,inhibition,[25]; compound 0.01 µM,-10%
same,inhibition,[25]; compound 0.1 µM,6.7%
same,inhibition,[26]; compound 0.01 µM,-1%
same,inhibition,[26]; compound 0.1 µM,-2.3%
same,inhibition,[27]; compound 0.01 µM,-2.6%
same,inhibition,[27]; compound 0.1 µM,-7.4%
same,inhibition,[28]; compound 0.01 µM,1.5%
same,inhibition,[28]; compound 0.1 µM,18.4%
same,inhibition,[29]; compound 0.01 µM,8.3%
same,inhibition,[29]; compound 0.1 µM,12.1%
same,inhibition,[30]; compound 0.01 µM,-8.7%
same,inhibition,[30]; compound 0.1 µM,8.3%
same,inhibition,[31]; compound 0.01 µM,6.4%
same,inhibition,[31]; compound 0.1 µM,14.9%
same,inhibition,[32]; compound 0.01 µM,2.2%
same,inhibition,[32]; compound 0.1 µM,4.5%
same,inhibition,[33]; compound 0.01 µM,7%
same,inhibition,[33]; compound 0.1 µM,4.6%
